Laboratory results reported in ChEMBL document CHEMBL4011633, “Donepezil-Based Central Acetylcholinesterase Inhibitors by Means of a "Bio-Oxidizable" Prodrug Strategy: Design, Synthesis, and in Vitro Biological Evaluation” (J Med Chem, 2017).
pEC50, pIC50: −log10 of the molar value. Activity calls are given as the source filed them. No cut-off for these calls is given here.

Tests used:
Acetylcholinesterase [1] = biological target: T1, Acetylcholinesterase (Homo sapiens, UniProt P22303); test: Inhibition of AChE in human erythrocytes using acetylthiocholine iodide as substrate preincubated for 5 mins followed by substrate addition measured every minute for 10 mins by Ellman's spectrophotometric method; assay type: cell-based
T1 sequence (P22303 whole entry): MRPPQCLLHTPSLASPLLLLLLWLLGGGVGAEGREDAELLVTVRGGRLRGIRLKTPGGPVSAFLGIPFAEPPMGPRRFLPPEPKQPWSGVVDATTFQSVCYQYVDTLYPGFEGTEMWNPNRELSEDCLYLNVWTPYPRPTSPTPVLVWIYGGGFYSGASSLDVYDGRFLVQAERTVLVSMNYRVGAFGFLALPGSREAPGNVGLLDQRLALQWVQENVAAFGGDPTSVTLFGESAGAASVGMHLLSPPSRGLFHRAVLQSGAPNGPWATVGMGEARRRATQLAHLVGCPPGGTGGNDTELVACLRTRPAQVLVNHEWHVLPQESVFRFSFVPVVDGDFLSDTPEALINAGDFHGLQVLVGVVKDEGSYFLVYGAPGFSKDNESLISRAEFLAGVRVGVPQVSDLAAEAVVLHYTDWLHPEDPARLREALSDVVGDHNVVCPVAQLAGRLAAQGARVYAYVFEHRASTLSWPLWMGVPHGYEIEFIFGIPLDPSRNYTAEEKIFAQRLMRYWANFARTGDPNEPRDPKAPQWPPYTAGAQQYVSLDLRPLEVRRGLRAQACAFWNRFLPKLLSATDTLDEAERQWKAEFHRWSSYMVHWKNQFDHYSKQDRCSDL

Cholinesterase = Cholinesterase (Equus caballus, UniProt P81908)
Chain of Cholinesterase (P81908 whole entry): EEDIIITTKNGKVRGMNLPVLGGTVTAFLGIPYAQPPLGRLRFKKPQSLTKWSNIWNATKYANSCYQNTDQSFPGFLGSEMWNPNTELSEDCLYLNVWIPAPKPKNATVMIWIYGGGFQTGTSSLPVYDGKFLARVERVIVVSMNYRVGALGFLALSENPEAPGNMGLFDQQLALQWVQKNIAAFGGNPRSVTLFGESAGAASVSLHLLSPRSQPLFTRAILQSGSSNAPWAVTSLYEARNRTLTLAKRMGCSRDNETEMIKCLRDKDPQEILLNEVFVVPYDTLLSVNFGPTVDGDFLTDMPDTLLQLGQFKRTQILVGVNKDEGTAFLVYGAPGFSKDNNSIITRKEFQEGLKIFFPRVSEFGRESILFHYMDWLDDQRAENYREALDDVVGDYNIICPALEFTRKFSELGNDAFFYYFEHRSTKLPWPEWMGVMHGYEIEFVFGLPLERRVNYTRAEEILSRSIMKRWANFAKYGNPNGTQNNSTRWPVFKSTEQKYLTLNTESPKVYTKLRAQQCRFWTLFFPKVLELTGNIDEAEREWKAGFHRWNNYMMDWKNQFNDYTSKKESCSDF
Description: Inhibition of equine serum BChE using butyrylthiocholine iodide as substrate preincubated for 5 mins followed by substrate addition measured every minute for 10 mins by Ellman's spectrophotometric method

[2] = Selectivity index, ratio of IC50 for equine serum BChE to IC50 for AChE in human erythrocytes; assay type: cell-based
[3] = Toxicity in ip dosed CD1 mouse assessed as mortality administered as qd after 48 hrs; assay type: organism-based; conditions: in vivo
[4] = Antioxidant activity assessed as DPPH free radical scavenging after 40 mins incubation in dark; assay type: functional
[5] = biological target: Amyloid-beta precursor protein (Homo sapiens) (UniProt P05067); test: Inhibition of amyloid beta (1 to 42 residues) (unknown origin) self-aggregation at 10 uM measured every 5 mins by ThT-fluorescence assay
Chain of Amyloid-beta precursor protein (Homo sapiens) (P05067 whole entry, the tested form may be a part): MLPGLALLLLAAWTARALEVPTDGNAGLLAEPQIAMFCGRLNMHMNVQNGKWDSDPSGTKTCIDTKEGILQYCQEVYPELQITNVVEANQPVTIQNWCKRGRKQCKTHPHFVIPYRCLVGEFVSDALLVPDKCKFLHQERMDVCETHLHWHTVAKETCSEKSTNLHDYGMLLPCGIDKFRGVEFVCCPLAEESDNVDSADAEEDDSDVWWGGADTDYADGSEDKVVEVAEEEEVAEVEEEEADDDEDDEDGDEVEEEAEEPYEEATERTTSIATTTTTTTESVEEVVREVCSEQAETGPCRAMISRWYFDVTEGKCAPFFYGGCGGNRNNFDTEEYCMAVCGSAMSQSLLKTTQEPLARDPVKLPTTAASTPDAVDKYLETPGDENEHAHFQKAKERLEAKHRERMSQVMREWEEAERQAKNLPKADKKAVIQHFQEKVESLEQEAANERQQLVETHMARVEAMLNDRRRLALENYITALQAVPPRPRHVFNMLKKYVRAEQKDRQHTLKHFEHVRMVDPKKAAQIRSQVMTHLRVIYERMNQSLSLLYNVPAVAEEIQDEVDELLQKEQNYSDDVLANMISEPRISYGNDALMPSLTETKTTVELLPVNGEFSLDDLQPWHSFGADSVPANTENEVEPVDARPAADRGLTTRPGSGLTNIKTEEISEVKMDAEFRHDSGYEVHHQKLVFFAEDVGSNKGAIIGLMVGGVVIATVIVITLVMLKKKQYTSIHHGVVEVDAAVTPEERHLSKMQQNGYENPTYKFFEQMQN

Salmonella typhimurium [6] = test: Genotoxicity in Salmonella typhimurium TAMix after 90 mins by Ames test; assay type: toxicity; conditions: salmonella enterica subsp. enterica serovar typhimurium, 1.5 h
Salmonella typhimurium [7] = test: Genotoxicity in Salmonella typhimurium TA98 after 90 mins by Ames test; assay type: toxicity; conditions: salmonella enterica subsp. enterica serovar typhimurium, 1.5 h
Acetylcholinesterase [8] = biological target: T1, Acetylcholinesterase; test: Inhibition of human recombinant AChE-induced human amyloid beta (1 to 40 residues) aggregation at 100 uM after 24 hrs by thioflavine T fluorescence method
[9] = Effective permeability of compound at pH 7.4 at 100 uM after 4 hrs by PAMPA; assay type: physicochemical; conditions: read-out: Peff
SH-SY5Y = test: Cytotoxicity against human SH-SY5Y cells assessed as […] in cell viability at 0.1 to 1 mM after 24 hrs by fluorescence assay; assay type: cell-based; conditions: 1000 µM
[10] = (§1) Prodrug activation in 2% PBS NAD+ riboflavin at 25 uM assessed as (+/-)-1-[(3-Chlorophenyl)methyl]-4-[(5,6-dimethoxy-1-oxo-indan-2-yl)methyl]pyridin-1-ium-3-carboxamide Bromide formation after 180 mins in the presence of (+/-)-1-[(3-Chlorophenyl)methyl]-4-[(5,6-dimethoxy-1-oxo-indan-2-yl)methyl]pyridin-1-ium-3-carboxamide Bromide
Mus musculus [11] = test: Toxicity in CD1 mouse liver at 10 mg/kg, ip qd administered daily for 14 days by macroscopic method; assay type: organism-based; conditions: in vivo, 336 h
Mus musculus [12] = test: Toxicity in CD1 mouse kidney at 10 mg/kg, ip qd administered daily for 14 days by macroscopic method; assay type: organism-based; conditions: in vivo, 336 h
Brain [13] = test: Prodrug activation in CD1 mouse brain at 10 mg/kg, ip qd after 24 hrs by LC-MS/MS analysis; assay type: organism-based; conditions: in vivo
Mus musculus [14] = test: Toxicity in CD1 mouse brain at 10 mg/kg, ip qd administered daily for 14 days by macroscopic method; assay type: organism-based; conditions: in vivo, 336 h
Mus musculus [15] = test: Toxicity in CD1 mouse assessed as change in spleen texture at 10 mg/kg, ip qd administered for 14 days by macroscopic method; assay type: organism-based; conditions: in vivo, 336 h
Mus musculus [16] = test: Toxicity in CD1 mouse liver at 10 mg/kg, ip qd administered daily for 14 days by microscopic method; assay type: organism-based; conditions: in vivo, 336 h
Mus musculus [17] = test: Toxicity in CD1 mouse assessed as change in spleen texture at 10 mg/kg, ip qd administered for 14 days by microscopic method; assay type: organism-based; conditions: in vivo, 336 h
Brain [18] = test: Prodrug activation in CD1 mouse brain at 10 mg/kg, ip qd administered daily for 14 days by LC-MS/MS analysis; assay type: organism-based; conditions: in vivo, 336 h
[19] = as §1, with “PBS” for “PBS NAD+”
Mus musculus [20] = test: Toxicity in CD1 mouse heart at 10 mg/kg, ip qd administered daily for 14 days by microscopic method; assay type: organism-based; conditions: in vivo, 336 h
Mus musculus [21] = test: Toxicity in CD1 mouse heart at 10 mg/kg, ip qd administered daily for 14 days by macroscopic method; assay type: organism-based; conditions: in vivo, 336 h
Mus musculus [22] = test: Toxicity in CD1 mouse assessed as mortality at 10 mg/kg, ip qd administered daily for 14 days; assay type: organism-based; conditions: in vivo, 336 h
[23] = as §1, with “pH 7.4” for “2%”, “buffer” for “NAD+ riboflavin”
[24] = Prodrug activation in CD3OD solution assessed as (+/-)-1-[(3-Chlorophenyl)methyl]-4-[(5,6-dimethoxy-1-oxo-indan-2-yl)methyl]pyridin-1-ium-3-carboxamide Bromide formation at 10 mM after 4 to 10 mins in presence of DPPH radical solution by 1H NMR analysis
Mus musculus [25] = test: Toxicity in CD1 mouse brain at 10 mg/kg, ip qd administered daily for 14 days by microscopic method; assay type: organism-based; conditions: in vivo, 336 h
[26] = as §1, with “0.1%” for “2%”
[27] = as §1, with “10% methanolic silver nitrate” for “2% PBS NAD+ riboflavin”
Mus musculus [28] = test: Toxicity in CD1 mouse kidney at 10 mg/kg, ip qd administered daily for 14 days by microscopic method; assay type: organism-based; conditions: in vivo, 336 h
Acetylcholinesterase [29] = biological target: T1, Acetylcholinesterase; test: Inhibition of AChE (unknown origin)

COC(=O)c1c[n+](Cc2ccccc2)ccc1CC1Cc2cc(OC)c(OC)cc2C1=O (racemic)
pIC50 (Acetylcholinesterase [1]): 7.59 | pIC50 (Cholinesterase): 5.51 | Ratio IC50 [2]: 119

CC(=O)c1c[n+](Cc2ccccc2C)ccc1CC1Cc2cc(C)c(C)cc2C1=O (racemic)
pIC50 (Acetylcholinesterase [1]): 7.56 | Ratio IC50 [2]: 6.95

COc1cc2c(cc1OC)C(=O)C(Cc1cc[n+](Cc3cccc(C)c3)cc1C(C)=O)C2 (racemic)
pIC50 (Acetylcholinesterase [1]): 7.85 | pIC50 (Cholinesterase): 5.22 | Ratio IC50 [2]: 427

CC(=O)C1=CN(Cc2ccccc2C)C=CC1CC1Cc2cc(Cl)ccc2C1=O (stereo not given)
pIC50 (Acetylcholinesterase [1]): < 6.00

CC(=O)c1c[n+](Cc2ccccc2C)ccc1CC1Cc2cc(Cl)ccc2C1=O (racemic)
Ratio IC50 [2]: 13.9

CC(=O)c1c[n+](Cc2ccccc2C)ccc1CC1Cc2cc(C)ccc2C1=O (racemic)
pIC50 (Acetylcholinesterase [1]): 7.04 | pIC50 (Cholinesterase): 5.42 | Ratio IC50 [2]: 41.9

COc1cc2c(cc1OC)C(=O)C(CC1CCN(Cc3ccccc3)CC1)C2 (stereo not given) [DONEPEZIL]
LD50 at 48 h [3]: 22.5 mg/kg | Activity [4]: inactive

COc1cc2c(cc1OC)C(=O)C(Cc1cc[n+](Cc3cccc(Cl)c3)cc1C(N)=O)C2.[Br-] (racemic)
pIC50 (Acetylcholinesterase [1]): 7.39 | LD50 at 48 h [3]: 70 mg/kg | pIC50 (Cholinesterase): < 5.00 | inhibition [5]: 25% | Activity (Salmonella typhimurium [6]): Non-Toxic | Activity (Salmonella typhimurium [7]): Non-Toxic | inhibition (Acetylcholinesterase [8]): 41% | Papp at 4 h, 100 µM [9]: 0.15 ×10⁻⁶ cm/s | Activity (SH-SY5Y): Non-Toxic

CC(=O)c1c[n+](Cc2ccccc2C)ccc1CC1Cc2cc3c(cc2C1=O)OCO3 (racemic)
Ratio IC50 [2]: 26.9

COc1cc2c(cc1OC)C(=O)C(CC1C=CN(Cc3ccccc3C)C=C1C(N)=O)C2 (stereo not given)
pIC50 (Acetylcholinesterase [1]): < 6.00

COc1cc2c(cc1OC)C(=O)C(Cc1cc[n+](Cc3ccccc3Cl)cc1C(C)=O)C2 (racemic)
pIC50 (Acetylcholinesterase [1]): 7.74 | pIC50 (Cholinesterase): 5.72 | Ratio IC50 [2]: 106

COc1cc2c(cc1OC)C(=O)C(Cc1cc[n+](Cc3ccccc3C)cc1C(N)=O)C2 (racemic)
pIC50 (Acetylcholinesterase [1]): 6.17 | pIC50 (Cholinesterase): < 5.00

COc1ccc2c(c1)CC(Cc1cc[n+](Cc3ccccc3C)cc1C(C)=O)C2=O.[Br-] (racemic)
Papp at 4 h, 100 µM [9]: 0.3 ×10⁻⁶ cm/s | Ratio IC50 [2]: 133

COc1ccc2c(c1)CC(CC1C=CN(Cc3ccccc3C)C=C1C(C)=O)C2=O (stereo not given)
pIC50 (Acetylcholinesterase [1]): < 6.00 | Papp at 4 h, 100 µM [9]: 14.8 ×10⁻⁶ cm/s

CNC(=O)c1c[n+](Cc2ccccc2)ccc1CC1Cc2cc(OC)c(OC)cc2C1=O (racemic)
pIC50 (Acetylcholinesterase [1]): < 6.00 | pIC50 (Cholinesterase): 5.32

CNC(=O)c1c[n+](Cc2ccccc2C)ccc1CC1Cc2cc(OC)c(OC)cc2C1=O (racemic)
pIC50 (Acetylcholinesterase [1]): 5.00 to 6.00

COc1cc2c(cc1OC)C(=O)C(Cc1cc[n+](Cc3ccccc3)cc1C#N)C2 (racemic)
pIC50 (Acetylcholinesterase [1]): 8.53

CC(=O)C1=CN(Cc2ccccc2C)C=CC1CC1Cc2cc3c(cc2C1=O)OCO3 (stereo not given)
pIC50 (Acetylcholinesterase [1]): < 6.00 | Papp at 4 h, 100 µM [9]: 14.3 ×10⁻⁶ cm/s

COc1cc2c(cc1OC)C(=O)C(CC1C=CN(Cc3cccc(Cl)c3)C=C1C(N)=O)C2 (stereo not given)
Drug metabolism [10]: 39.6% | Activity (Mus musculus [11]): Non-Toxic | pIC50 (Acetylcholinesterase [1]): < 6.00 | Activity (Mus musculus [12]): Non-Toxic | Drug metabolism (Brain [13]): Metabolite_Notdetected | LD50 at 48 h [3]: > 50 mg/kg | Activity (Mus musculus [14]): Non-Toxic | Activity (Mus musculus [15]): Non-Toxic | Activity (Mus musculus [16]): Non-Toxic | Activity (Mus musculus [17]): Non-Toxic | pEC50 [4]: 4.05 | Drug metabolism (Brain [18]): Metabolite_Notdetected | Drug metabolism [19]: 77.9% | Activity (Mus musculus [20]): Non-Toxic | Activity (Mus musculus [21]): Non-Toxic | Activity (Mus musculus [22]): Non-Toxic | Activity (Salmonella typhimurium [6]): Non-Toxic | Activity (Salmonella typhimurium [7]): Non-Toxic | Drug metabolism [23]: 1.6% | Papp at 4 h, 100 µM [9]: 25.6 ×10⁻⁶ cm/s | Drug metabolism [24]: Metabolite detected | Activity (Mus musculus [25]): Non-Toxic | Drug metabolism [26]: 2.9% | Drug metabolism [27]: 28% | Activity (Mus musculus [28]): Non-Toxic

CC(=O)C1=CN(Cc2ccccc2C)C=CC1CC1Cc2cc(C)ccc2C1=O (stereo not given)
pIC50 (Acetylcholinesterase [1]): < 6.00

COC(=O)C1=CN(C)c2cccc(OC(=O)N(C)C)c2C1
pIC50 (Acetylcholinesterase [29]): < 3.00

COC(=O)c1cc2c(OC(=O)N(C)C)cccc2[n+](C)c1
pIC50 (Acetylcholinesterase [29]): 7.70

CCN(C)C(=O)Oc1cccc([C@H](C)N(C)C)c1 [RIVASTIGMINE]
LD50 at 48 h [3]: 6.2 mg/kg

COC(=O)c1c[n+](Cc2ccccc2C)ccc1CC1Cc2cc(OC)c(OC)cc2C1=O (racemic)
pIC50 (Acetylcholinesterase [1]): 8.24 | pIC50 (Cholinesterase): 5.75 | Ratio IC50 [2]: 309

COc1cc2c(cc1OC)C(=O)C(Cc1cc[n+](Cc3cccc(Cl)c3)cc1C(C)=O)C2 (racemic)
pIC50 (Acetylcholinesterase [1]): 8.49 | Ratio IC50 [2]: 1020
